Experimental data from patent US10422787B2, “System and method for single molecule detection” (ARIZONA BOARD OF REGENTS on behalf of ARIZONA STATE …, priority 2015, dated 2019).

How the values were obtained:
[1] = test system: cyclic RGD peptide; assay: Nanopore (approximately 12 nm) junction device functionalized with cyclic RGD peptide; format: binding
Protocol: Accordingly, in some embodiments, the background signal corresponds to the number of molecules adsorbed on the electrodes. This can be substantiated by collecting signals from a device small enough to allow only one integrin molecule to be trapped. In such a device, experiments were performed where the electrode edges were exposed by drilling a nanopore of approximately 12 nm diameter through the junction device. The electrodes were functionalized again with the cyclic RGD peptide. […] However, when 1 nM αVβ3 integrin is added a signal is generated (FIG. 11). […] This is because there is room for only one molecule at a time in the device, and this confirms that, in some embodiments, the background current arises from adsorption of many molecules.

[2] = test system: cyclic RGD peptide; assay: Tunnel junction device functionalized with cyclic RGD peptide, gap 3.5 to 4 nm, current vs time; format: binding; conditions: for signal on flowing solution over junction: X=0.1 μm junction, 10 pM α4β1 for several minutes, then 10 fM αVβ3
Source text: FIG. 7 illustrates a cross-sectional view of a tunnel junction edge (i.e., the edge of an opening) of the device according to some embodiments of the present disclosure which includes a first metal electrode 71 (e.g., palladium, gold and/or platinum) onto which is deposited a layer of an insulating dielectric such as alumina 72 (for example). A second metal electrode 73 is then deposited, typically using one of the metals used for the first electrode. In some embodiments (not shown), the first electrode 71 and the second electrode 73 A cut is then made in the structure to expose the edge of these layers (fabrication of this type of device is described in detail in co-pending, published WO2015/161119, and also in Pang, Ashcroft et al. 2014) to form the opening/nanopore 78, shown here as a plane adjacent to the electrodes 71, 73. Accordingly, the first electrode 71 and the second electrode 73 can have an opening formed therethrough such as, for example, a nanopore. Said another way, the first electrode 71 and the second electrode 73 can be said to be arranged within or adjacent to an opening, or have a nanopore formed therethrough.
Specifically, for example, the insulating layer 72 is deposited with a thickness d that is chosen to be greater than the longest linear dimension of the recognition molecules 74 (L1, referred to as its effective length). However, according to some embodiments, it is chosen to be less than the combined overall length of the largest dimension of a target molecule 75 (L2, also referred to as its effective length) bound to the recognition molecule 74 (L1+L2). In the case of the integrin-RGD pair (FIGS. 3 and 4) the RGD molecule is about 1 nm at its longest, while the integrin is 9 nm, for a total of about 10 nm. […] However, a large particle that fluctuates into a highly conductive state could be used to mediate current flow (Vattay, Salahub et al. 2015). In some embodiments, the gap need only be made substantially larger than twice the largest dimension of the recognition molecules (i.e., >2L1). Thus, for example, if a recognition molecule is 1 nm at its longest dimension, then the gap is configured to be greater than 2 nm, preferably by about 10%, to accommodate variations in the junction geometry (larger than 2.2 nm in this example). In some embodiments, a gap size can be from the noted minimum up to the size of one recognition molecule plus the size of the target protein. For example, if the largest dimension of the protein is 9 nm, then the gap in this case can be as big 9 nm plus the size of one of the recognition molecules (1 nm in this example), thus, a gap of 10 nm.
However, when the junctions are exposed to the target protein (αvβ3 integrin) signals appear immediately. […] A clear signal is immediately generated which includes two (2) features as marked: a background current (of about 0.5 nA in this case) and noise spikes of 0.5 to 1 nA superimposed on top.

Substance	signal in nanopore device ([1]; 1 nM solution)	background current ([2]; 10 pM and 100 pM solutions)	signal on flowing solution over junction [2]	fluctuating current component ([1]; 1 nM)	background current ([2]; 1 pM in 1 mM phosphate buffer pH 7.0)	change of background current ([2]; on increasing concentration to 10 pM)
α4β1: homologous, weakly-binding integrin protein used as a control	no signals are generated	no background current	no signal being produced	–	–	–
αvβ3: ~200 kD αVβ3 extracelluar domain of human integrin, target protein bound by cyclic RGD peptide	–	–	a large signal appeared after a few minutes	about 0.2 nA	about 0.5 nA	increases by nearly an order of magnitude
